From paper PMC8344253, “Identifying requirements for RSK2 specific inhibitors” (Journal of Enzyme Inhibition and Medicinal Chemistry, 2021)

Columns and labels:
[1] = target: T1, RSK2 (Homo sapiens, UniProt P51812); assay: ELISA kinase activity assay, RSK2; assay type: biochemical; conditions: for IC50: 10 μM ATP, 30 min reaction; for % Uninhibited kinase at 30 μM: 30 μM inhibitor
Description: The activity of RSK2 was measured as previously reported. Briefly, 1 nM kinase, inhibitor or vehicle (1% DMSO), and 10 μM ATP in kinase buffer were dispensed into the wells of a 96-well plate with adsorbed glutathione S-transferase fusion protein containing the sequence […]. The reaction was stopped after 30 min, during the linear phase, with the addition of equal volume 500 mM EDTA, then phosphorylated peptide was measured by ELISA. Luminescence from wells with EDTA added before ATP was subtracted, then luminescence was normalised to the average vehicle luminescence. […] After 2 h incubation, the kinase/inhibitor mix was diluted 100-fold in kinase buffer. […] The reaction was stopped at the time indicated in the figures with the addition of EDTA, and amount of phosphorylated peptide was measured by ELISA.
(§1) Hill slope and IC50 were unconstrained. […] Statistical significance is considered using α = 0.01.

[2] = test system: 247 kinases; design: method as in PMID 27528706; conditions: representatives from all kinase families; cited from earlier work
[3] = target: T1, RSK2; assay: FRET kinase binding assay (LanthaScreen Eu Kinase Binding Assay), full-length RSK2; conditions: for % Uninhibited kinase at 30 μM: 30 μM inhibitor; for IC50: 15 nM tracer; for Relative Off-Rate: slope of change in IC50 over time after 2 h pre-incubation, log-log fit
Description: (§2) Normalised EMR was calculated in MATLAB (Mathworks).
as §1

[4] = test system: RSK1/2; conditions: cell-based assay; cited from earlier work
[5] = target: T2, RSK1 (Homo sapiens, UniProt Q15418); assay: FRET kinase binding assay, RSK1; conditions: for % Uninhibited kinase at 30 μM: 30 μM inhibitor
T2 sequence (Q15418 whole entry): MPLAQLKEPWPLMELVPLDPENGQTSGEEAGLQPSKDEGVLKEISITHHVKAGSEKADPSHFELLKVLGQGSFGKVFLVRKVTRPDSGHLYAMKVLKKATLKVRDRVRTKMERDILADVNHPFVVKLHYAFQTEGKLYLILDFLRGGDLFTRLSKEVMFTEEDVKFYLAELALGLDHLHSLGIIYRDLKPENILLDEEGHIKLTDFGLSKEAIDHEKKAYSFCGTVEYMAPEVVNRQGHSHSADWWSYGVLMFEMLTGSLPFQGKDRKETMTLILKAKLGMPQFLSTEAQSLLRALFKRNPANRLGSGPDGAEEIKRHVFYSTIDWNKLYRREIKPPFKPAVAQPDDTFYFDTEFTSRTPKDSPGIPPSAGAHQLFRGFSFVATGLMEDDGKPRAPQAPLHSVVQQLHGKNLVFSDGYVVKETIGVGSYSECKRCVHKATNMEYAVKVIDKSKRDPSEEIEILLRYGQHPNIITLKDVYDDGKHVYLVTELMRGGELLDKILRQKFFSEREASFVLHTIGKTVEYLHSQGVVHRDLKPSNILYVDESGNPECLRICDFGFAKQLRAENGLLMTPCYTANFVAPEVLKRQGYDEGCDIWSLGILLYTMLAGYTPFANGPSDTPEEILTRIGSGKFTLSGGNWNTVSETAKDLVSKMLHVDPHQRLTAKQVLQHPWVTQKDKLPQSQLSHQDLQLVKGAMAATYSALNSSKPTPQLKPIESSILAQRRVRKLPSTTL
Description: as §2, §1
The results from the pre-incubation experiments provide an indirect measure of the inhibitor off rate whereas the simultaneous addition of inhibitor and tracer provide an indirect measure of the inhibitor on rate. […] The mechanism that accounts for the unique properties of RSK2 interacting with 1c are unknown.

[6] = target: T2, RSK1; assay: ELISA dilution reaction (100-fold dilution after 2 h pre-incubation), RSK1; assay type: biochemical; conditions: 4 h after 100-fold dilution
[7] = target: T3, RSK2 NTKD (Homo sapiens, UniProt P51812); assay: FRET kinase binding assay, isolated RSK2 NTKD; conditions: for % Uninhibited kinase at 30 μM: 30 μM inhibitor
T3 construct: domain, containing residues 1–389; made in house
T3 sequence (P51812 1-389): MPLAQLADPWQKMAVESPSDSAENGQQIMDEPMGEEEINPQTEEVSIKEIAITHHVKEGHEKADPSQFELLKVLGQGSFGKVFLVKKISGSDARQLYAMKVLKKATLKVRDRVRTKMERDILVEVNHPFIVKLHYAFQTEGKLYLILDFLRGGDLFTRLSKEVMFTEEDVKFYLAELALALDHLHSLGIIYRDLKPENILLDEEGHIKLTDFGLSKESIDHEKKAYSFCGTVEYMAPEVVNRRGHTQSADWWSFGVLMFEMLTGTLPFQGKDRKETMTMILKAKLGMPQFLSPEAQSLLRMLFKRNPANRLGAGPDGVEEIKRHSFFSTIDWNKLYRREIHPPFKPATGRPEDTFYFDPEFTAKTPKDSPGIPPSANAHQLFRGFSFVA
Description: as §2
Recombinant baculoviruses were generated by the Gateway cloning using the BaculoDirect Baculovirus Expression System (Invitrogen) according to the manufacturer's manual.The cDNA for RSK2 NTKD was amplified by conventional PCR, then cloned into pENTR-D-TOPO (pENTR Directional TOPO Cloning Kits, Invitrogen). The resulting Gateway Entry vectors were used for making the baculoviruses in the same way as RSK1 and RSK2 WT viruses. These constructs have 6xHis sequence in their C-termini and recombinant proteins were purified by Ni-NTA Agarose (Qiagen).
as §1

[8] = target: T1, RSK2; assay: ELISA dilution reaction (100-fold dilution after 2 h pre-incubation), RSK2; assay type: biochemical
Description: The activity of RSK2 was measured as previously reported. Briefly, 1 nM kinase, inhibitor or vehicle (1% DMSO), and 10 μM ATP in kinase buffer were dispensed into the wells of a 96-well plate with adsorbed glutathione S-transferase fusion protein containing the sequence […]. The reaction was stopped after 30 min, during the linear phase, with the addition of equal volume 500 mM EDTA, then phosphorylated peptide was measured by ELISA. Luminescence from wells with EDTA added before ATP was subtracted, then luminescence was normalised to the average vehicle luminescence. […] After 2 h incubation, the kinase/inhibitor mix was diluted 100-fold in kinase buffer. […] After the dilution, kinase/inhibitor solution and 3.3 μM ATP in kinase buffer were mixed to initiate the reaction. The reaction was stopped at the time indicated in the figures with the addition of EDTA, and amount of phosphorylated peptide was measured by ELISA.
To further analyse the stability of RSK2 with 1c the ELISA assay was used as an orthogonal approach. […] Inhibition of kinase activity was measured at differing time points and compared to that obtained with a concentration of inhibitor equal to the concentration after dilution. […]
Figure 6. […] After dilution, ATP was added and the reaction proceeded for the times indicated, then the reaction was stopped with EDTA and the amount of phosphorylated substrate was measured by ELISA. […]

[9] = target: RSK4 (Homo sapiens, UniProt Q9UK32); assay: FRET kinase binding assay, GST-tagged RSK4
RSK4, sequence (Q9UK32 whole entry, species assumed): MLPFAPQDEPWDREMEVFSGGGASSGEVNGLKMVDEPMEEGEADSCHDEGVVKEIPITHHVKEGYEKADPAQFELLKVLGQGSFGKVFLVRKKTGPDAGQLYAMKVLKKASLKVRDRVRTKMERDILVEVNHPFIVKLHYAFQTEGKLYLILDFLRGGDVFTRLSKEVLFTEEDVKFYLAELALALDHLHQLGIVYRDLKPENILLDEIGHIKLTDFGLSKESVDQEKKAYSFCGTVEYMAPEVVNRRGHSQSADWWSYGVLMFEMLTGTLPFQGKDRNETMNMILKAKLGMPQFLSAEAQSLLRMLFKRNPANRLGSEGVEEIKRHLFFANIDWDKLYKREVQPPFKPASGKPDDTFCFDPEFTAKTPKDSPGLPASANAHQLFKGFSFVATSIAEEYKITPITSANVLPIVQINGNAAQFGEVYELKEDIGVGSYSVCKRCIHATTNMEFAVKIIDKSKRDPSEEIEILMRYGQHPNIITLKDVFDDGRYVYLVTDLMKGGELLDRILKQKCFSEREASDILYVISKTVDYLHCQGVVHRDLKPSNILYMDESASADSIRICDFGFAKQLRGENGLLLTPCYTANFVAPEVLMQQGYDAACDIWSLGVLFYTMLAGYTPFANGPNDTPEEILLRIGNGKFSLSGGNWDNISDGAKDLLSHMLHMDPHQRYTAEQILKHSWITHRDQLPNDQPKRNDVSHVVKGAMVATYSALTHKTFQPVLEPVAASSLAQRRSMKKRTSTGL
Description: (§3) For RSK1 and RSK2 NTKD, 2 nM Eu Streptavidin and 2 nM Biotin anti-His antibody (Invitrogen) and for RSK3/4, 2 nM Eu anti-GST antibody (Invitrogen) were used in place of the Eu anti-His antibody. […] The corresponding average EMR of wells without inhibitor or kinase was subtracted, and background-subtracted EMR was normalised to average vehicle control. Normalised EMR was calculated in MATLAB (Mathworks).
(§4) Hill slope and IC50 were unconstrained. […] Curve fitting and statistics were calculated in Prism 9.0.2 (Graphpad). Statistical significance is considered using α = 0.01.
(§5) This assay uses an ATP-mimetic tracer labelled with an acceptor fluorophore and a recombinant His-tagged kinase, which is indirectly labelled with a europium donor chelated to an anti-His antibody. Interaction of the tracer with the kinase generates a FRET signal. […] GST-tagged RSK3 and RSK4 were purchased and tested with a labelled anti-GST antibody in the FRET assay.

[10] = target: RSK3 (Homo sapiens, UniProt Q15349); assay: FRET kinase binding assay, GST-tagged RSK3
RSK3, sequence (Q15349 whole entry, species assumed): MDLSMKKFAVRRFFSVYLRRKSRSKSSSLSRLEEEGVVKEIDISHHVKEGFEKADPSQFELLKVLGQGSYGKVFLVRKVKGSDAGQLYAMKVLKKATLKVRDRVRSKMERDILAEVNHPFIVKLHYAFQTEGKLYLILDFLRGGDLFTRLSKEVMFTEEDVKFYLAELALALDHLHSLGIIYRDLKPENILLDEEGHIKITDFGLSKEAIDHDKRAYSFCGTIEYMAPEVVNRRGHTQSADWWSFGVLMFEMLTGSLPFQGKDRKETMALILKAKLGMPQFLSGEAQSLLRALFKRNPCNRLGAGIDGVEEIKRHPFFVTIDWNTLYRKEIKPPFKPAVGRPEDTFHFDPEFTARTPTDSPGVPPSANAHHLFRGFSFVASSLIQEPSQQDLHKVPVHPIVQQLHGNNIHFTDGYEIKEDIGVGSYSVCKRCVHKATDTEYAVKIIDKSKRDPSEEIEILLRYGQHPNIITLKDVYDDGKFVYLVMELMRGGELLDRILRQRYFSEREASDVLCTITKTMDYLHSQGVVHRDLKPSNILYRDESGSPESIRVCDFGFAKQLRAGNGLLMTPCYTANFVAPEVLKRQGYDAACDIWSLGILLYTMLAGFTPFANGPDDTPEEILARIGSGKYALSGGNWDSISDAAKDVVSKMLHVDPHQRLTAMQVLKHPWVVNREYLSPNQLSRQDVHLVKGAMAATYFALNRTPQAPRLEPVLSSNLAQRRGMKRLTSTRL
Description: as §3, §4, §5

[11] = target: T2, RSK1; assay: ELISA kinase activity assay, RSK1; assay type: biochemical; conditions: RSK1, 2 h pre-incubation
[12] = FRET, RSK2, 5 min kinase-inhibitor incubation
[13] = FRET, RSK2, 2 h kinase-inhibitor incubation before tracer

T1 sequence (P51812 whole entry, the tested form may be a part): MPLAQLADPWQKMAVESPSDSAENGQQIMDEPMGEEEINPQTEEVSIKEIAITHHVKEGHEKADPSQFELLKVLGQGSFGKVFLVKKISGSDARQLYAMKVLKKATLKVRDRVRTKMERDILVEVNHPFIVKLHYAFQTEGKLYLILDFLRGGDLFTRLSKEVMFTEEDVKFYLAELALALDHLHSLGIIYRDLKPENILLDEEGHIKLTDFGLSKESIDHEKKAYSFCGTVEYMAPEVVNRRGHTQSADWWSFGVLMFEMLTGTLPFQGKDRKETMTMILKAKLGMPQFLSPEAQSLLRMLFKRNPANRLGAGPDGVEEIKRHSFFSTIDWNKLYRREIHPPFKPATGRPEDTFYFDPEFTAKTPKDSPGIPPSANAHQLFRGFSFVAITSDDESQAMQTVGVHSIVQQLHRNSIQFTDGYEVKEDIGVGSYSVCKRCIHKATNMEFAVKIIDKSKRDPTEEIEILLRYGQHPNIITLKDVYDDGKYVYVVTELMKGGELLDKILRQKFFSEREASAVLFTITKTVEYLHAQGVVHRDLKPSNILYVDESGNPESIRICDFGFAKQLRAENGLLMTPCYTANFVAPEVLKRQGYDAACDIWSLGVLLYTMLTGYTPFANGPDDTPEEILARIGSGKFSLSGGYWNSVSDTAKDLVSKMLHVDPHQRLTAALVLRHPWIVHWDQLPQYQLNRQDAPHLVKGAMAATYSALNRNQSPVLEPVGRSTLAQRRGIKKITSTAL

| SMILES | IC50 ([1]; RSK2, 2 h pre-incubation) | % Uninhibited kinase at 30 μM ([1]; RSK2, 2 h pre-incubation) | % Uninhibited kinase at 30 μM ([3]; FRET, RSK2, 5 min incubation) | IC50 [3, 12] | % Uninhibited kinase at 30 μM ([3]; FRET, RSK2, 2 h incubation) | IC50 [3, 13] | Relative Off-Rate ([3]; RSK2) | IC50 ([5]; FRET, RSK1, 2 h incubation) | % Uninhibited kinase at 30 μM ([5]; FRET, RSK1, 2 h incubation) | % Uninhibited kinase at 30 μM ([7]; 2 h incubation) | further results |
| --- | --- | --- | --- | --- | --- | --- | --- | --- | --- | --- | --- |
| CCCNC(=O)O[C@@H]1[C@@H](OC(=O)NCCC)[C@@H](O)[C@H](Oc2c(-c3ccc(O)cc3)oc3cc(O)cc(O)c3c2=O)O[C@H]1CCC [Inhibitor 1e, (2 s,3S,4S,5R,6S)-6-((5,7-dihydroxy-2–(4-hydroxyphenyl)-4-oxo-4H-chromen-3-yl)oxy)-5-hydroxy-2-propyltetrahydro-2H-pyran-3,4-diyl bis(n-propylcarbamate)] |  |  |  |  | 0.8% | 83.7 nM | 0.417 log10(nM/min) |  |  |  | melting point: 158 to 160 °C |
| CCCNC(=O)OC1C(CCC)CC(Oc2c(-c3ccc(O)cc3)oc3cc(O)cc(O)c3c2=O)C(O)C1OC(=O)NCCC (stereo not drawn) [Inhibitor 1f] |  |  |  |  | 1.3% | 90.9 nM | 0.630 log10(nM/min) |  |  |  |  |
| CC(=O)OC1C(C)OC(Oc2c(-c3ccc(O)cc3)oc3cc(O)cc(O)c3c2=O)C(O)C1OC(C)=O (stereo not drawn) [SL0101, reference compound] |  | 13.9% | 45.7% |  | 4.3% |  |  | 193 nM | 16.7% | 11.5% | Increase in IC50 with 5 min vs 2 h pre-incubation ([1]; RSK2): two-fold; % Uninhibited kinase at 30 μM ([1]; RSK2, 5 min pre-incubation): 31.6%; Inhibition after 5 min incubation ([3]; FRET, RSK2, 5 min incubation): ~50%; Inhibition of RSK4 ([9]; 2 h incubation): did not inhibit; % Uninhibited kinase at 30 μM ([9]; RSK4, 2 h incubation, 30 μM inhibitor): 70.9%; IC50 ([5]; FRET, RSK1, 5 min incubation): 774 nM; Inhibition after 5 min incubation ([5]; FRET, RSK1, 5 min incubation): 80%; % Uninhibited kinase at 30 μM ([5]; FRET, RSK1, 5 min incubation): 19.2%; Inhibition of RSK3 ([10]; 2 h incubation): did not inhibit; % Uninhibited kinase at 30 μM ([10]; RSK3, 2 h incubation, 30 μM inhibitor): 90.3%; IC50 [11]: 70.7 nM; % Uninhibited kinase at 30 μM ([11]; 30 μM inhibitor): 3.9%; Increase in IC50 with 5 min vs 2 h incubation [7]: two-fold; Inhibition after 5 min incubation ([7]; 5 min incubation): ~80%; % Uninhibited kinase at 30 μM ([7]; 5 min incubation): 20.1%; Inhibition of RSK2 after the dilution ([8]; 4 h after 100-fold dilution, 100 nM RSK2 pre-incubated 2 h with 5 μM SL0101): unable to inhibit |

Continued by falling IC50 [3, 13], values first:

| IC50 ([1]; RSK2, 2 h pre-incubation) | % Uninhibited kinase at 30 μM ([1]; RSK2, 2 h pre-incubation) | % Uninhibited kinase at 30 μM ([3]; FRET, RSK2, 5 min incubation) | IC50 [3, 12] | % Uninhibited kinase at 30 μM ([3]; FRET, RSK2, 2 h incubation) | IC50 [3, 13] | Relative Off-Rate ([3]; RSK2) | IC50 ([5]; FRET, RSK1, 2 h incubation) | % Uninhibited kinase at 30 μM ([5]; FRET, RSK1, 2 h incubation) | % Uninhibited kinase at 30 μM ([7]; 2 h incubation) | SMILES | further results |
| --- | --- | --- | --- | --- | --- | --- | --- | --- | --- | --- | --- |
| 183 nM | 15.7% | 49.7% | 24100 nM | 1.3% | 215 nM | 0.601 log10(nM/min) |  |  |  | CCCC1CC(Oc2c(-c3ccc(O)cc3)oc3cc(O)cc(O)c3c2=O)C(O)C(OC(C)=O)C1OC(C)=O (stereo not drawn) [Inhibitor 1b, C5”-n-propyl cyclitol SL0101] | Specificity in screen of 247 kinases [2]: primarily targeted RSK1/2; Inhibition of proliferation when RSK1/2 silenced [4]: ineffective |
| 84.7 nM | 9.4% | 26.2% | 6400 nM | 0.3% | 37.4 nM | 0.126 log10(nM/min) | 12.8 nM | 6.1% | 11.1% | CCCNC(=O)O[C@@H]1[C@@H](OC(C)=O)[C@@H](O)[C@H](Oc2c(-c3ccc(O)cc3)oc3cc(O)cc(O)c3c2=O)O[C@H]1CCC [Inhibitor 1c, (2 s,3R,4S,5S,6S)-2-((5,7-dihydroxy-2–(4-hydroxyphenyl)-4-oxo-4H-chromen-3-yl)oxy)-3-hydroxy-6-propyl-5-((propylcarbamoyl)oxy)tetrahydro-2H-pyran-4-yl acetate] | Inhibition at 8-fold higher concentration than the IC50 ([3]; FRET, RSK2, 5 min pre-incubation): 75%; Off rate lower than that of 1d, 1e, and 1f ([3]; RSK2, relative off-rate comparison): more than three-fold; Relative on-rate ([3]; RSK2, change in IC50 over time, tracer added simultaneously with inhibitor): −1.204 log10(nM/min); Off: On Ratio ([3]; RSK2, ratio of absolute value of relative off-rate to on-rate): 0.10; Relative on-rate ([5]; RSK1, change in IC50 over time, tracer added simultaneously with inhibitor): −0.719 log10(nM/min); Off: On Ratio ([5]; RSK1, ratio of absolute value of relative off-rate to on-rate): 0.25; Relative Off-Rate ([5]; RSK1, slope of change in IC50 over time after 2 h pre-incubation, log-log fit): 0.176 log10(nM/min); Inhibition of RSK1 after the dilution [6]: not inhibited; IC50 ([7]; 2 h incubation): 12 nM; inhibition at 1.5 µM ([8]; over a 12 h time course after 100-fold dilution, 100 nM RSK2 pre-incubated 2 h with 1.5 μM 1c): ~50% |
| 74.1 nM | 11.1% |  |  | 0.5% | 26.3 nM | 0.548 log10(nM/min) |  |  |  | CCCNC(=O)OC1C(CCC)CC(Oc2c(-c3ccc(O)cc3)oc3cc(O)cc(O)c3c2=O)C(O)C1OC(C)=O (stereo not drawn) [Inhibitor 1d] |  |
